The source of these data is patent publication US20100069248A1, “HERBICIDE COMBINATION COMPRISING DIMETHOXYTRIAZINYL SUBSTITUTED DIFLUOROMETHANESULFONYLANILIDES” (BAYER CROPSCIENCE AG, priority 2008, published 2010).

SMILES strings stand for the structures.

What all share (assay type): in vivo
In experiment [1] the test system is Alopecurus myosuroides (ALOMY). Briefly: Post-emergence action against weeds, greenhouse pots, visual scoring. On the procedure: (§1) Seeds or rhizome pieces of mono- and dicotyledonous harmful and useful plants were placed in peat pots (diameter 4 cm) filled with sandy loam and then covered with soil. The pots were kept in a greenhouse under optimum conditions. In addition, harmful plants encountered in paddy rice cultivation were cultivated in pots with a water level 2 cm above the soil surface.
(§2) About three weeks after the start of the cultivation, the test plants were treated at the 2- to 3-leaf stage. The herbicides, formulated as powder or liquid concentrates, were, either alone or in the combinations according to the invention, sprayed in various dosages on to the green parts of the plants using an application rate of 600 l of water/ha (converted). For further cultivation of the plants, the pots were then again kept under optimum conditions in a greenhouse.
(§3) The visual scoring of the herbicidal effects was carried out in intervals up to 21 days after the treatment. Scoring was carried out in percent in comparison to the untreated control plants. 0%=no herbicidal activity, 100%=complete herbicidal activity=complete kill.
(§4) The percentages from the treatments with the herbicides alone (=individual application) and with the combinations according to the invention (=mixtures) were employed to calculate interactions using the method of Colby. When the observed efficacies of the mixtures exceed the formal sum of the values of the tests with individual applications, they also exceed the expected value according to Colby, which is calculated using the formula below (cf. S. R. Colby; in Weeds 15 (1967) pp. 20 to 22):
(§5) • A, B=activity of components A and B in percent at a dosage of a and b g of ai/ha (=gramm of active substance per hectare), respectively. • E=expected value in % at a dosage of a+b g of ai/ha.

For experiment [2], the system named is Amaranthus retroflexus (AMARE). Described as above. As to conditions: 21 DAT, component B 60 g of ai/ha. On the procedure: as §1, §2, §3, §4, §5
The test system of a further experiment is Avena fatua (AVEFA). The experiment is described as above. As to conditions: 21 DAT, component B 60 g of ai/ha. As for the experimental part:
as §1, §2, §3, §4, §5

The test system of experiment [3] is Cyperus esculentus (CYPES). Described as above. The note with it: 21 DAT. As for the experimental part:
as §1, §2, §3, §4, §5

Experiment [4] concerns Fallopia (ex Polygonum) convolvulus (POLCO). The experiment is described as above. The note with it: 21 DAT. As for the experimental part: as §1, §2, §3, §4, §5
The subject of experiment [5] is Lolium multiflorum (LOLMU). Described as above. On the procedure: as §1, §2, §3, §4, §5
Experiment [6] deals with Matricaria inodora (MATIN). The experiment is described as above. As to conditions: 21 DAT. On the procedure: as §1, §2, §3, §4, §5
A further experiment concerns Stellaria media (STEME). Described as above. As to conditions: 10 DAT. On the procedure:
as §1, §2, §3, §4, §5

The next experiment relates to Viola tricolor (VIOTR). The description is as above. As for the experimental part:
as §1, §2, §3, §4, §5

Experiment [7] has as its system Triticum aestivum (TRZAS). The experiment is described as follows: Post-emergence action, greenhouse pots, visual scoring. The note with it: 10 DAT, component B 180 g of ai/ha. On the procedure:
as §1, §2, §3, §4, §5

The subject of a further experiment is Zea mays (ZEAMX). Described as above. The note with it: component B 60 g of ai/ha. As for the experimental part: as §1, §2, §3, §4, §5
Another experiment has as its system Setaria viridis (SETVI). Briefly: Post-emergence action against weeds, greenhouse pots, visual scoring. The note with it: 21 DAT. On the procedure:
as §1, §2, §3, §4, §5

Setting [8] is: 10 DAT, component B 60 g of ai/ha.
Setting [9] is: 10 DAT, component B 180 g of ai/ha.
The mark [10] stands for this setting: 21 DAT, component B 60 g of ai/ha.
Setting [11] is: 21 DAT, component B 180 g of ai/ha.

Turning to `O=C(O)c1c(Cl)ccc2cc(Cl)cnc12` [B3-1, 3,7-dichloro-8-quinolinecarboxylic acid], the “% activity found” value in experiment [1] (setting [8]) was 0%; in experiment [1] (setting [9]) it was 0%; in experiment [1] (setting [10]), 0%; in [1] (setting [11]), 0%; in experiment [2], 40%; with Avena fatua (AVEFA) it was 0%. In addition, the “% activity found” value in experiment [3] (component B 60 g of ai/ha), in experiment [3] (component B 180 g of ai/ha), in [4] (component B 60 g of ai/ha), in experiment [4] (component B 180 g of ai/ha), in [5] (setting [8]) and in experiment [5] (setting [9]) was 0% throughout. Also, the “% activity found” value in [6] (component B 60 g of ai/ha) came to 0%; in experiment [6] (component B 180 g of ai/ha), 0%; in the experiment on Stellaria media (STEME) (component B 60 g of ai/ha), 10%; in the experiment with Viola tricolor (VIOTR) (setting [9]), 20%; in the experiment on Viola tricolor (VIOTR) (setting [10]), 40%; in experiment [7], 0%. In addition, the “% activity found” value in the experiment on Zea mays (ZEAMX) (10 DAT) and with Zea mays (ZEAMX) (21 DAT) was 0% throughout.
`COc1c(Cl)ccc(Cl)c1C(=O)O` [B1-1, 3,6-dichloro-2-methoxybenzoic acid]: the “% activity found” value stood at 0% in experiment [1] (setting [10]); 0% in [1] (setting [11]); 0% in [3] (component B 60 g of ai/ha); 0% in experiment [3] (component B 180 g of ai/ha); 0% in experiment [5] (setting [8]); 10% in experiment [5] (setting [9]). Further, the “% activity found” value in experiment [5] (setting [10]) is listed as 0%; in the experiment on Setaria viridis (SETVI) (component B 60 g of ai/ha) it was 0%; in the experiment with Setaria viridis (SETVI) (component B 180 g of ai/ha), 20%; with Zea mays (ZEAMX) (10 DAT), 0%.
Turning to `COc1nc(OC)nc(C(=O)c2cccc(F)c2N(C)S(=O)(=O)C(F)F)n1` [A-1], the “% activity found” value in the experiment on Stellaria media (STEME) (component A 4 g of ai/ha) and in the experiment on Stellaria media (STEME) (component A 12 g of ai/ha) was 70% in each case.
